Series [1] in a line: HSPiP analysis: Hansen Solubility Sphere of the matrikine from solubility scores. On the set-up: δD / δP: unit not given here. The format is physicochemical. The following applies: for δD / δH / δP: Hansen Solubility Parameter of the peptide; for δD / δH / δP / R (Size of HSP Sphere): overall results summary; for δD value / δH value: in words, HSPiP fit of solubility scores; for radius: radius of the HSP sphere. Here is the method: (§1) The HSP sphere of seven different matrikines was determined by using a range of reference solvents (solvents with known HSP spheres) to dissolve the matrikines. The reference solvents were then ranked based on their ability to dissolve the matrikines. A software package called Hansen Solubility Parameters in Practice (HSPiP) was then used to determine the HSPs of each of the matrikines.
The use of qualitative rankings of solubility phenomena makes it possible to define a spheroidal cluster in which the most compatible samples are contained.
The scores from 1 to 6 were entered into the HSPiP data form and then the software analyses the data to produce a Hansen diagram of the solubility sphere, alongside details of the solubility parameters and the goodness of the fit of the data to the sphere, in text format.

Series [2] can be described thus: Qualitative solubility ranking of matrikines in reference solvents. The format is physicochemical. As for the experimental part:
as §1
In general, a set of around 20 standard reference solvents was used to carry out preliminary investigations in solubility tests. Following this, additional/fine-tuning (FT) solvents were selected and used to are used to optimise the reliability and definition of the solubility parameters of the matrikines.
All samples were prepared under standard conditions, within an air-conditioned laboratory environment, at 20° C. and a standard pressure.
Usually, samples are prepared on the Formax High-throughput Formulation System, manufactured by Chemspeed. However due to the small sample size, the samples of this project were prepared manually using a single channel pipette for liquids and an analytical balance for solids.
Qualitative evaluation of the solubility of the matrikines within a range of different reference solvents was used. Samples were placed into six categories, according to the relative extent to which the matrikine dissolved in the solvent.
Between these two extremes sit the other four ranking-categories, whose typical descriptions can be found in table 1 below.

Series [3] in a line: Franz cell skin explant penetration with 3D OrbiSIMS analysis. The format is in vitro ADME, human. Here is the method: For ex vivo analysis, full thickness human skin tissue was removed during cosmetic surgery from Caucasian female donors (aged 35-70). The explant was frozen immediately post-surgery, shipped and stored at −20° C. prior to use.
The tissue was then defrosted, cut and mounted, dermal side down, in a Franz-type static diffusion cell set-up (Franz, 1975), with an exposed surface area of 1.1 cm^2. Infinite doses of the cosmetic formulations were applied to the donor chamber, with the explant exposed to the formulations for 1 hour in a water bath set to 36.5° C. Sink conditions were maintained throughout the experiments.
After 1 hour, the Franz cell was dismantled, excess formulation was removed with a dry sponge and the skin explant was wiped with a sponge soaked in Teepol Solution (3% v/v). Next, the explant was dehydrated under vacuum at room temperature for 24 hours before 3D OrbiSIMS analysis […]
A 20 KeV Ar3000+ analysis beam with a diameter of 20 μm was used as the primary ion source. Samples were analysed at ambient temperature across a 400×400 μm area in positive polarity with sawtooth raster mode and a total crater size of 486×486 μm. […] Mass spectra were recorded at a resolution of 240,000 at m/z 200 in the mass range of 75 to 1,125 m/z. […]

Where [4] appears, read: blend Glycerol Carbonate:Dimethyl Formamide:1-Propanol 55:25:20%.

The structures appear in SMILES notation. Peptide text beside a SMILES is read from it.

On to `CCCCCCCCCCCCCCCC(=O)N[C@@H](CCC(=O)O)C(=O)N[C@@H](CCCCN)C(=O)NCC(=O)N[C@@H](CC(=O)O)C(=O)O` [Pal-EKGD] (HELM PEPTIDE1{[CCCCCCCCCCCCCCCC(=O)[*:2]].E.K.G.D}$$$$V2.0), for which, in series [1], the “greatest contribution to the cohesive energy density” value (“greatest contribution” for short) is on record as “Dispersion forces”, the δD worked out at 17.31, the δH was 17.26 and the δP is given as 13.92. Moreover, in series [1], the δD value result is “moderate”, the δH value result is “moderate”, the R (Size of HSP Sphere) turned out to be 10.3 MPa^0.5 and the radius is reported as 10.3 units.
In the case of `CCCCCCCCCCCCCCCC(=O)NCC(=O)N[C@@H](Cc1c[nH]cn1)C(=O)N[C@@H](CCCCN)C(=O)O` [Pal-GHK, N-Palmitoyl-Gly-His-Lys] (HELM PEPTIDE1{[CCCCCCCCCCCCCCCC(=O)[*:2]].G.H.K}$$$$V2.0), in series [1], the “greatest contribution” value is on record as “Dispersion forces”, the δD was determined as 17.83, the δH was 11.22 and the δP came out at 6.57. Besides, in series [1], the δD value result is “moderate”, the δH value entry was “low”, the R (Size of HSP Sphere) amounted to 3.5 MPa^0.5 and the radius was found to be 3.5 units. The “solubility over the reference solvents tested (in words)” value in series [2] is reported as “No samples showed complete dissolution”. For the same compound, the “penetration into the skin tissues” value in series [3] (formulation containing methyl gluceth-20 compared to glycerin only, 1 hour) is “penetrated quicker”. Further, the “Pal-GHK peptide ion intensity in skin explant” value in series [3] (formulation with glycerin+methyl gluceth-20 versus glycerin only, 1 hour in Franz cell, 3D OrbiSIMS) is given as “more peptide ion present”.
`CCCCCCCCCCCCCCCC(=O)NCC(=O)N1CCC[C@H]1C(=O)N[C@@H](CCCCN)C(=O)NCC(=O)O` [Pal-GPKG] (HELM PEPTIDE1{[CCCCCCCCCCCCCCCC(=O)[*:2]].G.P.K.G}$$$$V2.0): in series [1], the “greatest contribution” value is listed as “Dispersion forces”, the δD was 17.82, the δH worked out at 17.73 and the δP is recorded as 10.55. Besides, in series [1], the δD value result is reported as “moderate”, the δH value result was “moderate”, the R (Size of HSP Sphere) is 8.3 MPa^0.5 and the radius worked out at 8.3 units. The “dissolution (in words)” value in series [2] (blend Propylene Carbonate:Propylene Glycol 65:35%) was “did not dissolve”. For the same compound, the “dissolution (in words)” value in series [2] (blend Propylene Glycol Monomethyl Ether:Propylene Carbonate 55:45%) is listed as “did not dissolve”.
Regarding `CCCCCCCCCCCCCCCC(=O)NCC(=O)N[C@@H](CCC(N)=O)C(=O)N1CCC[C@H]1C(=O)N[C@@H](CCCNC(=N)N)C(=O)O` [Pal-GQPR, N-palmitoyl-Gly-Gln-Pro-Arg] (HELM PEPTIDE1{[CCCCCCCCCCCCCCCC(=O)[*:2]].G.Q.P.R}$$$$V2.0), the “dissolution (in words)” value in series [2] (blend Benzyl Alcohol:2-Propanol 80:20%) was “did not dissolve”; in series [2] (setting [4]), “did not dissolve”; in series [2] (solvent 2-PhenoxyEthanol), “most interaction with the product without complete dissolution”; in series [2] (solvent N-Methyl Formamide) it was “complete dissolution”.
As for `CCCCCCCCCCCCCCCC(=O)N[C@@H](CC(C)C)C(=O)N[C@@H](CO)C(=O)N[C@H](C(=O)N[C@@H](CC(=O)O)C(=O)O)C(C)C` [Pal-LSVD] (HELM PEPTIDE1{[CCCCCCCCCCCCCCCC(=O)[*:2]].L.S.V.D}$$$$V2.0), in series [1], the “greatest contribution” value is on record as “Dispersion forces”, the δD worked out at 18.84, the δH is 14.82 and the δP is reported as 12.04. Besides, in series [1], the δD value entry was “high”, the δH value entry was “low”, the R (Size of HSP Sphere) was 6.8 MPa^0.5 and the radius was 6.8 units. The “solubility over the reference solvents tested (in words)” value in series [2] is recorded as “very limited solubility”.
As for `CCCCCCCCCCCCCCCC(=O)N[C@@H](CCC(N)=O)C(=O)N[C@H](C(=O)N[C@@H](C)C(=O)N[C@H](C(=O)O)C(C)C)[C@@H](C)O` [Pal-QTAV] (HELM PEPTIDE1{[CCCCCCCCCCCCCCCC(=O)[*:2]].Q.T.A.V}$$$$V2.0), in series [1], the “greatest contribution” value is reported as “Dispersion forces”, the δD is reported as 17.61, the δH is on record as 10.95 and the δP is on record as 10.66. Further, in series [1], the δD value result is recorded as “moderate”, the δH value entry is “low”, the R (Size of HSP Sphere) is 6 MPa^0.5 and the radius amounted to 6 units. In series [2] (setting [4]), the “dissolution (in words)” value is reported as “didn't dissolve”.

These data come from patent publication US20250054582A1, “METHOD OF IDENTIFYING A SOLVENT FOR A MATRIKINE” (THE BOOTS COMPANY PLC, priority 2021, published 2025).
